Measurements: paper PMC5218480 (PLoS ONE, 2017)

Tested on: MV-4-11 cells
Assay: Gene expression microarray analysis (Affymetrix PrimeView) and GSEA
Type: cell-based, human
Design: RFU PODN (11730768_x_at) / Fold change /veh PODN (11730768_x_at) / RFU LINC00158 (11744669_a_at) / Fold change /veh LINC00158 (11744669_a_at) / RFU DUSP10 (11751237_a_at) / Fold change /veh DUSP10 (11751237_a_at) / RFU ID3 (11757404_x_at) / Fold change /veh ID3 (11757404_x_at) / RFU PLEKHG5 (11737974_s_at) / Fold change /veh PLEKHG5 (11737974_s_at) / RFU LRRC4B (11730491_at) / Fold change /veh LRRC4B (11730491_at) / RFU GIMAP4 (11747438_a_at) / Fold change /veh GIMAP4 (11747438_a_at) / RFU KRT8 (11758183_x_at) / Fold change /veh KRT8 (11758183_x_at) / RFU CNN1 (11734310_a_at) / Fold change /veh CNN1 (11734310_a_at) / RFU VPS37D (11726825_at) / Fold change /veh VPS37D (11726825_at) / RFU C10orf10 (11716522_x_at) / Fold change /veh C10orf10 (11716522_x_at) / RFU KIR2DL2 /// KIR2DL4 /// KIR2DL5A /// KIR2DL5B /// KIR2DS1 /// KIR2DS2 /// KIR2DS3 /// KIR2DS4 /// KIR3DL3 /// KIR3DL3 /// KIR3DS1 (11738374_at) / Fold change /veh KIR2DL2 /// KIR2DL4 /// KIR2DL5A /// KIR2DL5B /// KIR2DS1 /// KIR2DS2 /// KIR2DS3 /// KIR2DS4 /// KIR3DL3 /// KIR3DL3 /// KIR3DS1 (11738374_at) / RFU C1QL1 (11718748_at) / Fold change /veh C1QL1 (11718748_at) / RFU TMPRSS4 (11747572_a_at) / Fold change /veh TMPRSS4 (11747572_a_at) / RFU HAMP (11756126_x_at) / Fold change /veh HAMP (11756126_x_at) / RFU RNFT2 (11725882_a_at) / Fold change /veh RNFT2 (11725882_a_at) / RFU NR4A2 (11747474_a_at) / Fold change /veh NR4A2 (11747474_a_at) / RFU ABCC12 (11746883_a_at) / Fold change /veh ABCC12 (11746883_a_at) / RFU TMEM136 (11760407_x_at) / Fold change /veh TMEM136 (11760407_x_at) / RFU CLDN22 /// WWC2 (11732394_at) / Fold change /veh CLDN22 /// WWC2 (11732394_at) / RFU HLA-DPB1 (11760878_x_at) / Fold change /veh HLA-DPB1 (11760878_x_at) / RFU SPINT1 (11716480_a_at) / Fold change /veh SPINT1 (11716480_a_at) / RFU GAP43 (11754022_s_at) / Fold change /veh GAP43 (11754022_s_at) / RFU A4GNT (11735810_at) / Fold change /veh A4GNT (11735810_at) / RFU PRB3 (11715151_x_at) / Fold change /veh PRB3 (11715151_x_at) / RFU TUBB4B (11761932_at) / Fold change /veh TUBB4B (11761932_at) / RFU CAPN14 (11732068_a_at) / Fold change /veh CAPN14 (11732068_a_at) / RFU TMCC2 (11721928_a_at) / Fold change /veh TMCC2 (11721928_a_at) / RFU IRGQ (11745062_a_at) / Fold change /veh IRGQ (11745062_a_at) / RFU FAM174B (11720279_a_at) / Fold change /veh FAM174B (11720279_a_at) / RFU TMPRSS4 (11748680_a_at) / Fold change /veh TMPRSS4 (11748680_a_at) / RFU FAM212B (11763350_a_at) / Fold change /veh FAM212B (11763350_a_at) / RFU PLEKHG5 (11743358_a_at) / Fold change /veh PLEKHG5 (11743358_a_at) / RFU ZSCAN30 (11745921_a_at) / Fold change /veh ZSCAN30 (11745921_a_at) / RFU CMKLR1 (11741424_a_at) / Fold change /veh CMKLR1 (11741424_a_at) / RFU LOC101060620 /// MAPK8IP1 (11723275_at) / Fold change /veh LOC101060620 /// MAPK8IP1 (11723275_at) / RFU SPTSSB (11747773_x_at) / Fold change /veh SPTSSB (11747773_x_at) / RFU PRSS12 (11739890_at) / Fold change /veh PRSS12 (11739890_at) / RFU BIN1 (11741810_x_at) / Fold change /veh BIN1 (11741810_x_at) / RFU WNT11 (11732464_a_at) / Fold change /veh WNT11 (11732464_a_at) / RFU C10orf10 (11716521_a_at) / Fold change /veh C10orf10 (11716521_a_at) / RFU C5orf56 (11738089_at) / Fold change /veh C5orf56 (11738089_at) / RFU CYB561 (11721691_x_at) / Fold change /veh CYB561 (11721691_x_at) / RFU ANKRD19P (11752326_a_at) / Fold change /veh ANKRD19P (11752326_a_at) / RFU OR2T12 /// OR2T33 /// OR2T8 (11738714_s_at) / Fold change /veh OR2T12 /// OR2T33 /// OR2T8 (11738714_s_at) / RFU VCAN (11748164_a_at) / Fold change /veh VCAN (11748164_a_at) / RFU JSRP1 (11732532_at) / Fold change /veh JSRP1 (11732532_at) / RFU KRTAP10-11 (11738290_x_at) / Fold change /veh KRTAP10-11 (11738290_x_at) / RFU MYO3A (11730013_a_at) / Fold change /veh MYO3A (11730013_a_at) / RFU EBF3 (11725865_a_at) / Fold change /veh EBF3 (11725865_a_at) / RFU CAMK2N1 (11719241_x_at) / Fold change /veh CAMK2N1 (11719241_x_at) / RFU C5orf56 (11738088_a_at) / Fold change /veh C5orf56 (11738088_a_at) / RFU OLFML3 (11715873_a_at) / Fold change /veh OLFML3 (11715873_a_at) / RFU LOC100653217 /// NTM (11731650_a_at) / Fold change /veh LOC100653217 /// NTM (11731650_a_at) / RFU MAPK11 (11762145_a_at) / Fold change /veh MAPK11 (11762145_a_at) / RFU FIZ1 (11724087_x_at) / Fold change /veh FIZ1 (11724087_x_at) / RFU OASL (11726364_x_at) / Fold change /veh OASL (11726364_x_at) / RFU SOX15 (11748057_x_at) / Fold change /veh SOX15 (11748057_x_at) / RFU CD79A (11719716_a_at) / Fold change /veh CD79A (11719716_a_at) / RFU HIST1H1D (11736915_at) / Fold change /veh HIST1H1D (11736915_at) / RFU CASKIN2 (11723855_a_at) / Fold change /veh CASKIN2 (11723855_a_at) / RFU LOC730098 (11760151_x_at) / Fold change /veh LOC730098 (11760151_x_at) / RFU OR4N2 (11742367_at) / Fold change /veh OR4N2 (11742367_at) / RFU PRRT2 (11749266_a_at) / Fold change /veh PRRT2 (11749266_a_at) / RFU SNX32 (11753110_a_at) / Fold change /veh SNX32 (11753110_a_at) / RFU CDHR5 (11726645_a_at) / Fold change /veh CDHR5 (11726645_a_at) / RFU RCAN1 (11760418_a_at) / Fold change /veh RCAN1 (11760418_a_at) / RFU FAM167A (11723789_a_at) / Fold change /veh FAM167A (11723789_a_at) / RFU FAM26E (11764081_at) / Fold change /veh FAM26E (11764081_at) / RFU ISYNA1 (11749810_s_at) / Fold change /veh ISYNA1 (11749810_s_at) / RFU ACY1 (11761880_at) / Fold change /veh ACY1 (11761880_at) / RFU 11764098_at / Fold change /veh 11764098_at / RFU SAMD14 (11745864_x_at) / Fold change /veh SAMD14 (11745864_x_at) / RFU NPB (11741838_a_at) / Fold change /veh NPB (11741838_a_at) / RFU TMPRSS6 (11731388_a_at) / Fold change /veh TMPRSS6 (11731388_a_at) / RFU KRTAP10-2 (11738614_at) / Fold change /veh KRTAP10-2 (11738614_at) / RFU ARHGAP8 /// PRR5-ARHGAP8 (11727945_x_at) / Fold change /veh ARHGAP8 /// PRR5-ARHGAP8 (11727945_x_at) / RFU KRTAP5-7 /// NADSYN1 (11734609_at) / Fold change /veh KRTAP5-7 /// NADSYN1 (11734609_at) / RFU RASL12 (11751679_a_at) / Fold change /veh RASL12 (11751679_a_at) / RFU CDKN2B (11736163_a_at) / Fold change /veh CDKN2B (11736163_a_at) / RFU PRF1 (11729649_at) / Fold change /veh PRF1 (11729649_at) / RFU, ZNF638 /// ZNF638-IT1 / Fold change vs veh, ZNF638 /// ZNF638-IT1 / RFU, PANK3 / Fold change vs veh, PANK3 / RFU, SH3YL1 / Fold change vs veh, SH3YL1 / RFU, ZEB2 / Fold change vs veh, ZEB2 / RFU, NRIP1 / Fold change vs veh, NRIP1 / RFU, PTTG1IP / Fold change vs veh, PTTG1IP / RFU, CAPN2 / Fold change vs veh, CAPN2 / RFU, MED14 / Fold change vs veh, MED14 / RFU, SNORA58 / Fold change vs veh, SNORA58 / RFU, C1orf63 / Fold change vs veh, C1orf63 / RFU, LRRFIP1 / Fold change vs veh, LRRFIP1 / RFU, NDUFAF7 / Fold change vs veh, NDUFAF7 / RFU, SLC12A2 / Fold change vs veh, SLC12A2 / RFU, IBTK / Fold change vs veh, IBTK / RFU, ESF1 / Fold change vs veh, ESF1 / Fold change vs veh, TMEM50B / RFU, TAOK1 / Fold change vs veh, TAOK1 / RFU, ACBD3 / Fold change vs veh, ACBD3 / RFU, TMA16 / Fold change vs veh, TMA16 / RFU, RWDD3 / Fold change vs veh, RWDD3 / RFU, BCAT1 / Fold change vs veh, BCAT1 / RFU, EDEM3 / Fold change vs veh, EDEM3 / RFU, TMEM33 / Fold change vs veh, TMEM33 / RFU, WDR75 / Fold change vs veh, WDR75 / RFU, AHCTF1 / Fold change vs veh, AHCTF1 / RFU, TFRC / Fold change vs veh, TFRC / RFU, ZDHHC17 / Fold change vs veh, ZDHHC17 / RFU, NOM1 / Fold change vs veh, NOM1 / RFU, ARL8B / Fold change vs veh, ARL8B / RFU, ZBTB11 / Fold change vs veh, ZBTB11 / RFU, TAMM41 / Fold change vs veh, TAMM41 / RFU, KIAA1704 /// LOC100996395 / Fold change vs veh, KIAA1704 /// LOC100996395 / RFU, ING1 / Fold change vs veh, ING1 / RFU, TRMT61B / Fold change vs veh, TRMT61B / RFU, FUBP3 / Fold change vs veh, FUBP3 / RFU, TP53 / Fold change vs veh, TP53 / RFU, TNKS2 / Fold change vs veh, TNKS2 / RFU, ZFP14 / Fold change vs veh, ZFP14 / RFU, ACTR2 / Fold change vs veh, ACTR2 / RFU, PPP3R1 / Fold change vs veh, PPP3R1 / RFU, PIK3R1 / Fold change vs veh, PIK3R1 / RFU, HNRNPA1 / Fold change vs veh, HNRNPA1 / RFU, RNF170 / Fold change vs veh, RNF170 / RFU, ZNF28 / Fold change vs veh, ZNF28 / RFU, RNGTT / Fold change vs veh, RNGTT / RFU, OGT / Fold change vs veh, OGT / RFU, BRD1 / Fold change vs veh, BRD1 / RFU, MARS / Fold change vs veh, MARS / RFU, ZNF655 / Fold change vs veh, ZNF655 / RFU, FAHD1 / Fold change vs veh, FAHD1 / RFU, BDP1 / Fold change vs veh, BDP1 / RFU, LRRCC1 / Fold change vs veh, LRRCC1 / RFU, ARID1A / Fold change vs veh, ARID1A / RFU, ZNF146 / Fold change vs veh, ZNF146 / RFU, ZNF330 / Fold change vs veh, ZNF330 / RFU, GPN3 / Fold change vs veh, GPN3 / RFU, C9orf123 / Fold change vs veh, C9orf123 / RFU, N4BP2L2 / Fold change vs veh, N4BP2L2 / RFU, ARFIP1 / Fold change vs veh, ARFIP1 / RFU, FAM179B / Fold change vs veh, FAM179B / RFU, BCL10 / Fold change vs veh, BCL10 / RFU, UHRF1BP1L / Fold change vs veh, UHRF1BP1L / RFU, BET1 / Fold change vs veh, BET1 / RFU, CNOT2 / Fold change vs veh, CNOT2 / RFU, ZNF268 / Fold change vs veh, ZNF268 / Fold change vs veh, ZNF507 / RFU, DGCR2 / Fold change vs veh, DGCR2 / RFU, WDSUB1 / Fold change vs veh, WDSUB1 / Fold change vs veh, HSP90B1 /// MIR3652 / RFU, ADSS / Fold change vs veh, ADSS / RFU, GK / Fold change vs veh, GK / RFU, ZNF148 / Fold change vs veh, ZNF148 / RFU, TAF9 / Fold change vs veh, TAF9 / RFU, SLC1A5 / Fold change vs veh, SLC1A5 / RFU, SLMO2 / Fold change vs veh, SLMO2 / RFU, ABCC4 / Fold change vs veh, ABCC4 / RFU, LOC101060439 /// RAP1B / Fold change vs veh, LOC101060439 /// RAP1B / RFU, RFX7 / Fold change vs veh, RFX7 / RFU, GTPBP10 / Fold change vs veh, GTPBP10 / RFU, CNEP1R1 / Fold change vs veh, CNEP1R1 / RFU, BIVM-ERCC5 /// ERCC5 / Fold change vs veh, BIVM-ERCC5 /// ERCC5 / RFU, ILF3 / Fold change vs veh, ILF3 / RFU 11762660_at / Fold change /veh 11762660_at / RFU VCAN (11757783_s_at) / Fold change /veh VCAN (11757783_s_at) / RFU DDX43 (11728927_at) / Fold change /veh DDX43 (11728927_at) / RFU KRT8 (11758188_x_at) / Fold change /veh KRT8 (11758188_x_at) / RFU NKD1 (11759106_at) / Fold change /veh NKD1 (11759106_at) / RFU SRD5A1 (11742802_a_at) / Fold change /veh SRD5A1 (11742802_a_at) / RFU TPSAB1 /// TPSB2 (11721975_s_at) / Fold change /veh TPSAB1 /// TPSB2 (11721975_s_at) / RFU GSTM3 (11746129_a_at) / Fold change /veh GSTM3 (11746129_a_at) / RFU IL23R (11737362_x_at) / Fold change /veh IL23R (11737362_x_at) / RFU TMEM51 (11727254_a_at) / Fold change /veh TMEM51 (11727254_a_at) / RFU PIWIL2 (11732686_x_at) / Fold change /veh PIWIL2 (11732686_x_at) / RFU ORM1 (11744905_x_at) / Fold change /veh ORM1 (11744905_x_at) / RFU CCDC152 (11743942_at) / Fold change /veh CCDC152 (11743942_at) / RFU ECM1 (11717891_a_at) / Fold change /veh ECM1 (11717891_a_at) / RFU IL23R (11748794_a_at) / Fold change /veh IL23R (11748794_a_at) / RFU TNFAIP8L3 (11732012_x_at) / Fold change /veh TNFAIP8L3 (11732012_x_at) / RFU MBOAT4 (11741988_at) / Fold change /veh MBOAT4 (11741988_at) / RFU 11764193_at / Fold change /veh 11764193_at / RFU TMEM53 (11763286_at) / Fold change /veh TMEM53 (11763286_at) / RFU MAGEB2 (11727129_at) / Fold change /veh MAGEB2 (11727129_at) / RFU TMEM200A (11744735_a_at) / Fold change /veh TMEM200A (11744735_a_at) / RFU CCDC152 (11751479_a_at) / Fold change /veh CCDC152 (11751479_a_at) / RFU FAM211A (11726209_a_at) / Fold change /veh FAM211A (11726209_a_at) / RFU RGS16 (11746705_a_at) / Fold change /veh RGS16 (11746705_a_at) / RFU VCAN (11755009_s_at) / Fold change /veh VCAN (11755009_s_at) / RFU RHOB (11743442_s_at) / Fold change /veh RHOB (11743442_s_at) / RFU RGS16 (11720943_a_at) / Fold change /veh RGS16 (11720943_a_at) / RFU RGS16 (11720944_at) / Fold change /veh RGS16 (11720944_at) / RFU, VPS4B / Fold change vs veh, VPS4B / RFU, CREB1 / Fold change vs veh, CREB1 / RFU, DNAJC13 / Fold change vs veh, DNAJC13 / RFU, GNAQ / Fold change vs veh, GNAQ / RFU, CDK5R1 / Fold change vs veh, CDK5R1 / RFU, ZRANB3 / Fold change vs veh, ZRANB3 / RFU, CUL4A / Fold change vs veh, CUL4A / RFU, CCNY / Fold change vs veh, CCNY / RFU, UFL1 / Fold change vs veh, UFL1 / RFU, COG3 / Fold change vs veh, COG3 / RFU, DIAPH2 / Fold change vs veh, DIAPH2 / RFU, SKA2 / Fold change vs veh, SKA2 / RFU, AFF3 / Fold change vs veh, AFF3 / RFU, LMF1 / Fold change vs veh, LMF1 / RFU, IPO11 / Fold change vs veh, IPO11 / RFU, DFFB / Fold change vs veh, DFFB / RFU, FOXP1 / Fold change vs veh, FOXP1 / RFU, CARD8 / Fold change vs veh, CARD8 / RFU, STRN3 / Fold change vs veh, STRN3 / RFU, ADK / Fold change vs veh, ADK / RFU, RASSF2 / Fold change vs veh, RASSF2 / RFU, WIPF1 / Fold change vs veh, WIPF1 / RFU, LARP1B / Fold change vs veh, LARP1B / RFU, RASA1 / Fold change vs veh, RASA1 / RFU, RB1 / Fold change vs veh, RB1 / RFU, PPFIA1 / Fold change vs veh, PPFIA1 / RFU, MAT2A / Fold change vs veh, MAT2A / RFU, CCT5 / Fold change vs veh, CCT5 / RFU, WDR92 / Fold change vs veh, WDR92 / RFU, CUX1 / Fold change vs veh, CUX1 / RFU, TTC7A / Fold change vs veh, TTC7A / RFU, TMEM135 / Fold change vs veh, TMEM135 / RFU, DEPTOR / Fold change vs veh, DEPTOR / RFU, CPM / Fold change vs veh, CPM / RFU, DNAJB6 / Fold change vs veh, DNAJB6 / RFU, CACNA2D3 / Fold change vs veh, CACNA2D3 / RFU, DTX4 / Fold change vs veh, DTX4 / RFU, TFCP2 / Fold change vs veh, TFCP2 / RFU, GMCL1 /// GMCL1P1 / Fold change vs veh, GMCL1 /// GMCL1P1 / RFU, AEBP2 / Fold change vs veh, AEBP2 / RFU, SNHG1 /// SNORD22 /// SNORD25 /// SNORD26 /// SNORD27 /// SNORD28 /// SNORD29 /// SNORD31 / Fold change vs veh, SNHG1 /// SNORD22 /// SNORD25 /// SNORD26 /// SNORD27 /// SNORD28 /// SNORD29 /// SNORD31 / Fold change (Aza/veh), C12orf56 (ProbeSet 11735607_a_at) / Fold change (ACY-1035/veh), C12orf56 (ProbeSet 11735607_a_at) / Fold change (Aza/veh), FGFR1OP (ProbeSet 11751329_s_at) / Fold change (ACY-1035/veh), FGFR1OP (ProbeSet 11751329_s_at) / Fold change (Aza/veh), VPS36 (ProbeSet 11739960_a_at) / Fold change (ACY-1035/veh), VPS36 (ProbeSet 11739960_a_at) / RFU SYPL1 (11715823_x_at) / Fold change /veh SYPL1 (11715823_x_at) / RFU IGFBP7 (11715501_s_at) / Fold change /veh IGFBP7 (11715501_s_at) / RFU REEP3 (11722064_at) / Fold change /veh REEP3 (11722064_at) / RFU IGLL1 (11728026_x_at) / Fold change /veh IGLL1 (11728026_x_at): dose or concentration left out as unconfirmed
Conditions: ProbeSet 11760938_a_at; LIST D

SMILES: Nc1ncn([C@@H]2O[C@H](CO)[C@@H](O)[C@H]2O)c(=O)n1 [azacitidine]
- RFU, MAT2A: 129.03 RFU
